According to patent publication US20220160713A1, “SELECTIVE INHIBITOR OF PROTEIN ARGININE […] 5 (PRMT5)” (PRELUDE THERAPEUTICS, INCORPORATED, priority 2019, published 2022):
≈ marks a conversion by molar mass, not a printed value. Entries after “also recorded” stand apart in the source; their conditions may differ.

What was measured:
[1] = Dynamic vapor sorption (DVS); format: physicochemical
Protocol: The dynamic vapor sorption experiments can be done with a VTI SGA-Cx100 Symmetric Vapor Sorption Analyzer. The moisture uptake profile is completed in three cycles of 10% RH increments with adsorption from 5% to 95% RH, followed by desorption of 10% increments from 95% to 5%. The equilibration criteria are 0.0050 wt % in 5 minutes with a maximum equilibration time of 180 minutes. All adsorption and desorption are performed at room temperature (21-22° C.). No pre-drying step is applied for the samples.

FaSSIF solubility = details: 25 °C, thermodynamic from solid
Protocol: Compounds are first dispersed in freshly prepared FaSSIF (http://biorelevant.com/site_media/upload/documents/How_to_make_FaSSIF_FeSSIF_and_FaSSGF.pdf) buffer in 1 mg/mL respectively, and the standard samples are prepared by preparing 1 mg/mL of test compounds in DMSO. The compounds are then sufficient mixed by vortex mixer for 30 sec, and agitated at 25° C. using 300 rpm form 4 hour in thermo mixer. After incubation, the prepared samples are centrifuged at 10000 rpm for 10 min to remove the undissolved solid, the resulting supernatants are applied to HPLC. The actual concentrations of the compounds are evaluated by measuring the peak area, and the solubility (S) of compounds is calculated according to following equation:
S=Csmp=Cstd*(Asmp/Astd)*(Vstd/Vsmp)
Where C is the sample concentration in μg/mL, A is the peak area, and V is the injection volume.

[2] = Gravimetric solubility estimate in water; format: physicochemical; details: thermodynamic from solid
[3] = tested on: sDMA in Granta-519 tumor samples; assay: sDMA levels in tumor samples of Granta-519 mouse xenograft (western blot); format: in vivo
Protocol: (§1) Granta-519 cells was maintained in DMEM medium supplemented with 10% fetal bovine serum and 2 mM L-Glutamine at 37° C. in an atmosphere of 5% CO2 in air. Cells in exponential growth phase were harvested and 1×10^7 cells in 0.1 mL of PBS with Matrigel (1:1) were injected subcutaneously at the right lower flank region of each mouse for tumor development. The treatments were started when the mean tumor size reaches approximately 300-400 mm^3. […] Formula I or vehicle (0.5% Na CMC+0.5% Tween80, suspension) were administered orally (QD for Formula I, QD for vehicle) at a dose of 30 mg/kg and 50 mg/kg for 19 and 16 days, respectively. Body weights and tumor size were measured every 3 to 4 days after randomization. Animals were euthanized 12 hours after last dosing, and blood and tumor samples were collected for analysis.
To measure sDMA levels in tumor samples, tumors from each mouse were weighted and homogenized in RIPA buffer supplemented with protease inhibitor (cOmplete™, EDTA-free Protease Inhibitor Cocktail, Roche). Lysate were centrifuged at 14,000 rpm for 30 min at 4° C. to remove debris. Total protein concentrations of lysate were determined by BCA assay (ThermoFisher Scientific, Catalog #: 23225). Equal amount of total proteins from each tumor were separated on SDS-PAGE gel, and sDMA levels were determined by WB as described previously.

[4] = Rat non-crossover PK study; format: in vivo, rat (SD, male, non-fasted); details: 1 mg/kg p.o.
Protocol: In a rat (SD, male, non-fasted) non-crossover PK study, the compound of Formula I was dosed at 1 mg/kg (DMA: 20% HPBCD=5:95, solution) via i.v. administration (N=3) and 1 mg/kg (0.5% Na CMC+0.5% Tween80, solution) via oral gauge (p.o.) (N=3).

Granta-519 cells = assay: Cell proliferation assay on Granta-519 cells (CCK-8); format: cell-based; details: Homo sapiens, 240 h; Granta-519 cell line, day 10; read-out: Prolif. IC50
Protocol: Granta-519 cells are maintained in PRMI 1640 (Corning Cellgro, Catalog #: 10-040-CV) medium supplemented with 10% v/v FBS (GE Healthcare, Catalog #: SH30910.03). Formula I is dissolved in DMSO to make 10 mM stocks and stored at −20° C. Nine-point, 3-fold serial dilutions are made with DMSO with top concentration at 1 mM (working stocks).
On day of experiment, compound working stocks are further diluted at 1:50 with fresh medium in 96 well plate, and 10 μL of diluted drugs are added to a new 96 well plate for proliferation assay. Cells growing at exponential phase are spun down at 1500 rpm for 4 min and resuspend in fresh medium to reach a density of 0.5×10^6 cells/ml. 200 ul of cells are added to 96 well plate containing diluted drugs and incubated for 3 days. DMSO is used a vehicle control.
One day 3, 10 μL of Cell Counting Kit-8 (CCK-8, Jojindo, CK04-13) solution is added to a new 96 well plate. […] Plates are incubated in CO2 incubator for 2 hours and OD450 values are measured with a microplate reader (iMark microplate reader, Bio-Rad). […]
Percentage of viable cells, relative to DMSO vehicle control, is calculated and plotted in Graphpad Prism ([Inhibitor] vs. normalized response−Variable slope) to determine proliferation IC50 values on day 10.

[5] = tested on: Symmetric Di-Methyl Arginine (sDMA) marks in Granta-519 cell line; assay: Cellular sDMA western blot in Granta cells; format: cell-based; details: Homo sapiens, 72 h, 3 days
[6] = tested on: Granta-519 mouse xenograft; assay: Tumor growth inhibition in Granta-519 mouse xenograft model; format: in vivo
Protocol: as §1

[7] = room temperature, normal humidity range (40-50% RH)

| Compound | change of form, XRPD before and after DVS [1] | water adsorbed (adsorption/desorption isotherms) ([1]; at about 95% humidity) [%] | water adsorbed (adsorption/desorption isotherms) [1, 7] [%] | solubility [2] [µg/mL] | also measured |
| --- | --- | --- | --- | --- | --- |
| C[C@@]1(O)[C@@H]([C@H](O)c2ccc(Cl)c(Cl)c2)O[C@@H](n2ccc3c(N)ncnc32)[C@@H]1O.Cl [Formula IB, Form II] | no change in Form | ~6 | ~3 | – | – |
| CC(=O)CC(c1ccccc1)c1c(O)c2ccccc2oc1=O (stereo not shown) [Warfarin] | – | – | – | – | solubility at 4 h (FaSSIF solubility): 10 to 25 µg/mL (≈ 32.4 to 81.1 µM) |
| C[C@@]1(O)[C@@H]([C@H](O)c2ccc(Cl)c(Cl)c2)O[C@@H](n2ccc3c(N)ncnc32)[C@@H]1O [Formula I, Form I, (2R,3S,4R,5R)-5-(4-amino-7H-pyrrolo[2,3-d]pyrimidin-7-yl)-2-((R)-(3,4-dichlorophenyl)(hydroxy)methyl)-3-methyltetrahydrofuran-3,4-diol] | did not change the polymorphic form; also recorded: no change in form | ~0.5 | ~0.8 | – | – |
| C[C@@]1(O)[C@@H]([C@H](O)c2ccc(Cl)c(Cl)c2)O[C@@H](n2ccc3c(N)ncnc32)[C@@H]1O.Cl [Formula IB, Form I] | no change in Form | ~0.5 | ~0.1 | – | – |
| O=C1C(O)=C([C@H]2CC[C@H](c3ccc(Cl)cc3)CC2)C(=O)c2ccccc21 [Atovaquone] | – | – | – | – | solubility at 4 h (FaSSIF solubility; fassif): < 2 µg/mL |
| C[C@@]1(O)[C@@H]([C@H](O)c2ccc(Cl)c(Cl)c2)O[C@@H](n2ccc3c(N)ncnc32)[C@@H]1O.Cl [Formula IB, (2R,3S,4R,5R)-5-(4-amino-7H-pyrrolo[2,3-d]pyrimidin-7-yl)-2-((R)-(3,4-dichlorophenyl)(hydroxy)methyl)-3-methyltetrahydrofuran-3,4-diol, hydrochloride salt] | – | – | – | ~800 | – |
| C[C@@]1(O)[C@@H]([C@H](O)c2ccc(Cl)c(Cl)c2)O[C@@H](n2ccc3c(N)ncnc32)[C@@H]1O [Formula I, (2R,3S,4R,5R)-5-(4-amino-7H-pyrrolo[2,3-d]pyrimidin-7-yl)-2-((R)-(3,4-dichlorophenyl)(hydroxy)methyl)-3-methyltetrahydrofuran-3,4-diol] | – | – | – | – | inhibition of sDMA in tumor ([3]; 30 mg/kg orally QD): > 90%; sDMA in tumor ([3]; 50 mg/kg orally QD): no detectable sDMA; average dose normalized AUC [4]: 3246 ng·kg·h/mL/mg; bioavailability ([4]; male, SD, blood, po): > 100%; IC50 (Granta-519 cells): 75 nM; IC50 [5]: 31 nM; body weight loss ([6]; 30 mg/kg orally QD, 19 days): 1%; tumor growth inhibition ([6]; 30 mg/kg orally QD, 19 days): 46%; body weight loss ([6]; 50 mg/kg orally QD, 16 days): 8%; tumor growth inhibition ([6]; 50 mg/kg orally QD, 16 days): 79% |
| C[C@@]1(O)[C@@H]([C@H](O)c2ccc(Cl)c(Cl)c2)O[C@@H](n2ccc3c(N)ncnc32)[C@@H]1O.O=C(O)/C=C\C(=O)O [Formula IA, (2R,3S,4R,5R)-5-(4-amino-7H-pyrrolo[2,3-d]pyrimidin-7-yl)-2-((R)-(3,4-dichlorophenyl)(hydroxy)methyl)-3-methyltetrahydrofuran-3,4-diol, maleate salt] | – | – | – | ~1100 | – |
| C[C@@]1(O)[C@@H]([C@H](O)c2ccc(Cl)c(Cl)c2)O[C@@H](n2ccc3c(N)ncnc32)[C@@H]1O.Cl [Formula IB, Form III] | no change in form | ~2.8 | ~1 | – | – |
| C[C@@]1(O)[C@@H]([C@H](O)c2ccc(Cl)c(Cl)c2)O[C@@H](n2ccc3c(N)ncnc32)[C@@H]1O.O=C(O)C(=O)O [Formula IC, (2R,3S,4R,5R)-5-(4-amino-7H-pyrrolo[2,3-d]pyrimidin-7-yl)-2-((R)-(3,4-dichlorophenyl)(hydroxy)methyl)-3-methyltetrahydrofuran-3,4-diol, oxalate salt] | – | – | – | < 300 | – |
| C[C@@]1(O)[C@@H]([C@H](O)c2ccc(Cl)c(Cl)c2)O[C@@H](n2ccc3c(N)ncnc32)[C@@H]1O.O=P(O)(O)O [Formula ID, (2R,3S,4R,5R)-5-(4-amino-7H-pyrrolo[2,3-d]pyrimidin-7-yl)-2-((R)-(3,4-dichlorophenyl)(hydroxy)methyl)-3-methyltetrahydrofuran-3,4-diol, phosphate salt] | – | – | – | < 300 | – |
